Test results taken from patent US12139505B2, “Compositions useful in therapy of autophagy-related pathologies, and methods of making and using the same” (The University of Toledo, priority 2017, dated 2024).
Entries after “also recorded” stand apart in the source; their conditions may differ. Values belong to the molecule of their own block, whether it stands above or below them.

Columns and labels:
[1] = system: RG2 glioma cells; assay: Autophagic flux assay (LC3-II western blot in the presence of bafilomycin-A1); format: cell-based, rat; conditions: RG2 glioma cells, 4 h, 50 nM bafilomycin-A1, western blot
Description: In the assay, cells are treated with subtoxic concentrations of bafilomycin-A, which blocks lysosomal acidification. This prevents autophagosome fusion with lysosomes at a specific point. For example, RG2 glioma cells (or other cell types) are “clamped” by addition of 10-50 nM bafilomycin-A1 to block autophagosome fusion with lysosomes and eliminate autophagy clearance. Then, autophagy flux is measured by the conjugation of phosphatidylethanolamine to LC3-I, yielding an electrophoretically separable LC3-II by western blot. LC3-II acts as a link between nascent autophagosomes and cargo being directed into these structures. An autophagy enhancer will increase LC3-II in the presence of bafilomycin, whereas a compound that inhibits autophagy completion will not do so. Thus, the L3A-I to LC3A-II conversion in the presence of bafilomycin-A1 constitutes a valid measure of autophagy.
For the assays, rat glioma cells RG2 (ATCC® CRL-2433™; RG2 cells) were cultured. […] The cells were then incubated for an additional 4 h. At termination, the cell culture medium was removed, cells were washed with PBS and lysed on ice in Pierce RIPA buffer containing protease and phosphatase inhibitors.
Western Blotting: The proteins were electrophoresed and wet-blotted to polyvinylidine difluoride membranes, blocked overnight in 4% bovine serum albumin, and developed using antibodies obtained from Cell Signaling Technology (L3A: cat #. 4599; ULK1: cat #. 8054, ULK1(p757): cat #. 6880).
RG2 glioma cells were treated without drug (first column in FIG. 8A) or 4 h with 50 nM bafilomycin-A1 (BAF), the indicated concentration of LK, or the phosphonate analog 2-isopropyl-LK-3-phosphonate. The western blot results are shown in FIG. 8A, where the lower band corresponds to LC3-II. An increase in the intensity of this band in the presence of bafilomycin-A1 indicates increased autophagic flux. […] Similar results are shown in FIG. 9 with respect to the LK-P compound 2-butyl-lanthionine-phosphonate (also referred to as 2-n-butyl-lanthionine-phosphonate or 2-n-butyl-LK-P).
RG2 glioma cells (American Tissue Type Collection, ATTC, Rockville MD USA) were treated for 4 h with 50 nM bafilomycin-A1 (previously dissolved to 1000× final concentration in dimethylsulfoxide). Thirty minutes after addition of bafilomycin, cells were treated with test agents at 100× final concentration. Cells were lysed in RIPA buffer containing protease and phosphatase inhibitors. Protein concentration was assayed and normalized to constant values (typically 5-7 mg/mL). Proteins were electrophoresed across 4-20% polyacrylamide gels and wet blotted onto polyvinylidine difluoride (PVDF) membranes. Proteins were blotted with commercially available antibodies against LC3.

[2] = system: HeLa cells; assay: Rescue of HeLa cells from TNFa toxicity, tetrazolium reduction assay; format: cell-based; conditions: 20 h 10 ng/mL TNFa, 10 micromolar cycloheximide
Description: HeLa cells were treated 20 h with 10 ng/mL recombinant human TNFa in the presence of 10 micromolar cycloheximide and viability measured by tetrazolium reduction assay.

[3] = Stability of the isolated solid to high vacuum; format: physicochemical; conditions: isolated white solid, at least overnight
[4] = system: people with ALS; conditions: cited from earlier work
[5] = system: ULK1 system in RG2 cells; assay: ULK1/ULK1(p757) quantitative autophagy stimulation assay; format: cell-based, rat; conditions: 24 h in RG2 cells; read-out: EC50 on the ULK1 system (ULK1 increase and ULK1(p757) decrease)
Description: For validation purposes, a second, quantitative autophagy stimulation assay was utilized.

[6] = system: SOD1^G93A mouse; conditions: cited from earlier work
[7] = system: 3×Tg-AD mouse; conditions: cited from earlier work
[8] = system: pMCAO; conditions: after pMCAO; cited from earlier work
[9] = system: C6 glioma tumor; conditions: C6 glioma xenograft into rat cortices; cited from earlier work
[10] = measurement of brain LKE levels and animal studies; cited from earlier work

SMILES: CC(C)C1=C(P(=O)(O)O)N[C@H](C(=O)O)CS1 [2-isopropyl-LK-P, 2-isopropyl lanthionine ketimine phosphonate]
- autophagic flux / autophagy stimulation (LC3-II band in the presence of bafilomycin-A1) [1]: stimulates autophagy in RG2 cells at low micromolar concentrations; also recorded: much more potent stimulator of autophagy than LK; also recorded: comparable activity; also recorded: stimulate autophagy to varying degrees; also recorded: increase autophagic flux
- autophagic flux / autophagy stimulation (LC3-II band in the presence of bafilomycin-A1) ([1]; listed as 2-isopropyl lanthionine-ketimine-phosphonate): clearly was more potent at 10 mM than was LK
- autophagic flux / autophagy stimulation (LC3-II band in the presence of bafilomycin-A1) ([1]; listed as 2-isopropyl-lanthionine-ketimine-3-phosphonate): clearly more potent at 10 μM than LK was
- cell death stemming from TNFa treatment [2]: reduced cell death
- EC50 ([2]; Homo sapiens, HeLa, compound 1 h before, read-out: EC50% for reduction of cell death from TNFa): ~10 mM
- stability to high vacuum pressures [3]: stable to high vacuum pressures at least overnight without visual or spectral decomposition

SMILES: CCOC(=O)[C@@H]1CSC(CC)=C(C(=O)O)N1 [Compound 2-ethyl-LKE]
- autophagic flux / autophagy stimulation (LC3-II band in the presence of bafilomycin-A1) [1]: stimulate autophagy in RG2 cells

SMILES: CC1=NN(c2ccccc2)C(=O)C1 [edaravone]
- clinical decline in daily functioning ([4]; people with ALS): slows the clinical decline in daily functioning

SMILES: O=C(O)C1=CSC[C@@H](C(=O)O)N1 [LK, (5R)-3,5,-dicarboxy-1-thia-4-aza-2-cyclohexene, reference compound]
- autophagic flux / autophagy stimulation (LC3-II band in the presence of bafilomycin-A1) [1]: increase autophagic flux

SMILES: Nc1nc2ccc(OC(F)(F)F)cc2s1 [Riluzole]
- prolongation of life ([4]; ALS patients): 2-3 months

- EC50 [5]: ~0.05 µM
SMILES: CCOC(=O)C1=CSCC(C(=O)O)N1 (stereo not shown) [LKE, lanthionine ketenamine ethyl ester]
- autophagic flux / autophagy stimulation (LC3-II band in the presence of bafilomycin-A1) [1]: stimulate autophagy to varying degrees
- lifespan and motor function [6]: increases lifespan and slows decline of motor function
- amyloid burden, phospho-tau, microglial activation, cognitive decline [7]: decreases amyloid burden inside neurons and in plaques, decreases phospho-tau accumulation, decreases microglial activation, and slows cognitive decline
- infarct volume and functional recovery [8]: decreases infarct volume and improves functional recovery
- tumor growth [9]: slows growth of C6 glioma tumor
- βββ (blood brain barrier) penetrability [10]: good βββ penetrability

SMILES: CCCCC1=C(P(=O)(O)O)N[C@H](C(=O)O)CS1
- autophagic flux / autophagy stimulation (LC3-II band in the presence of bafilomycin-A1) [1]: comparable activity; also recorded: stimulate autophagy to varying degrees; also recorded: greater autophagy activation effect than LKE
- autophagic flux / autophagy stimulation (LC3-II band in the presence of bafilomycin-A1) ([1]; listed as 2-butyl-LK-P): more effective at inducing autophagic flux than, inter alia, LK-E
- stability to high vacuum pressures [3]: stable to high vacuum pressures at least overnight without visual or spectral decomposition

SMILES: CC(C)C1=C(P(=O)(O)O)NCCS1 [2-isopropyl-AECK-P]
- autophagic flux / autophagy stimulation (LC3-II band in the presence of bafilomycin-A1) [1]: greater autophagy activation effect than LKE
- autophagic flux / autophagy stimulation (LC3-II band in the presence of bafilomycin-A1) ([1]; listed as 2-isopropyl AECK-P): comparable activity
